Numbers after ± are expanded uncertainties.
Columns and labels:
[1] = 298.15 K; for surface tension liquid-gas: Drop volume; for mass density: 101.33 kPa, Liquid
[2] = xn = mol fraction of the nth substance listed; details: 298.15 K; for surface tension liquid-gas: Drop volume; for mass density: 101 kPa, Liquid

SMILES: Cc1ccc(C)cc1 [1,4-dimethylbenzene]
- surface tension liquid-gas [1]: 27.7 ± 0.21 mN/m
- mass density [1]: 856.51 ± 0.68 kg/m3

SMILES: Cc1ccc(C)cc1 [1,4-dimethylbenzene] + CCCCCC
- surface tension liquid-gas ([2]; x2 = 0.0535): 26.84 ± 0.2 mN/m
- surface tension liquid-gas ([2]; x2 = 0.0718): 26.58 ± 0.2 mN/m
- surface tension liquid-gas ([2]; x2 = 0.1265): 25.76 ± 0.19 mN/m
- surface tension liquid-gas ([2]; x2 = 0.1341): 25.66 ± 0.19 mN/m
- surface tension liquid-gas ([2]; x2 = 0.3083): 23.45 ± 0.17 mN/m
- surface tension liquid-gas ([2]; x2 = 0.3397): 23.1 ± 0.17 mN/m
- surface tension liquid-gas ([2]; x2 = 0.399): 22.47 ± 0.17 mN/m
- surface tension liquid-gas ([2]; x2 = 0.467): 21.81 ± 0.16 mN/m
- surface tension liquid-gas ([2]; x2 = 0.492): 21.59 ± 0.16 mN/m
- surface tension liquid-gas ([2]; x2 = 0.5267): 21.29 ± 0.16 mN/m
- surface tension liquid-gas ([2]; x2 = 0.6034): 20.67 ± 0.15 mN/m
- surface tension liquid-gas ([2]; x2 = 0.6394): 20.39 ± 0.15 mN/m
- surface tension liquid-gas ([2]; x2 = 0.6877): 20.07 ± 0.15 mN/m
- surface tension liquid-gas ([2]; x2 = 0.7826): 19.41 ± 0.14 mN/m
- surface tension liquid-gas ([2]; x2 = 0.8126): 19.22 ± 0.14 mN/m
- surface tension liquid-gas ([2]; x2 = 0.8798): 18.79 ± 0.14 mN/m
- mass density ([2]; x2 = 0.0393): 848.42 ± 0.5 kg/m3
- mass density ([2]; x2 = 0.0869): 838.63 ± 0.51 kg/m3
- mass density ([2]; x2 = 0.1535): 824.96 ± 0.51 kg/m3
- mass density ([2]; x2 = 0.208): 813.78 ± 0.52 kg/m3
- mass density ([2]; x2 = 0.3063): 793.59 ± 0.54 kg/m3
- mass density ([2]; x2 = 0.3524): 784.21 ± 0.55 kg/m3
- mass density ([2]; x2 = 0.4333): 767.75 ± 0.56 kg/m3
- mass density ([2]; x2 = 0.4867): 756.93 ± 0.57 kg/m3
- mass density ([2]; x2 = 0.5404): 746.02 ± 0.58 kg/m3
- mass density ([2]; x2 = 0.5836): 737.32 ± 0.59 kg/m3
- mass density ([2]; x2 = 0.638): 726.41 ± 0.6 kg/m3
- mass density ([2]; x2 = 0.6903): 715.94 ± 0.61 kg/m3
- mass density ([2]; x2 = 0.7872): 696.69 ± 0.63 kg/m3
- mass density ([2]; x2 = 0.8297): 688.25 ± 0.64 kg/m3
- mass density ([2]; x2 = 0.8952): 675.28 ± 0.66 kg/m3
- mass density ([2]; x2 = 0.9417): 666.19 ± 0.67 kg/m3

SMILES: CCCCCC [hexane]
- surface tension liquid-gas [1]: 17.91 ± 0.13 mN/m
- mass density [1]: 654.7 ± 0.7 kg/m3

SMILES: CCCOC(=O)CC [propyl propanoate]
- surface tension liquid-gas [1]: 24.1 ± 0.19 mN/m
- mass density [1]: 875.53 ± 0.64 kg/m3
